Square brackets hold non-standard residues; d marks the D form. Peptide text beside a SMILES is read from it. hArg = N=C(N)NCCCC[C@H](N)C(=O)O; Aib = CC(C)(N)C(=O)O
Biological target: T1, human P1R (Homo sapiens, UniProt Q03431)
T1 construct: expressed in transfected cells; host or cells: HKRK-B28 (porcine kidney LLC-PK1, stably transfected)
T1 sequence (Q03431 27-593): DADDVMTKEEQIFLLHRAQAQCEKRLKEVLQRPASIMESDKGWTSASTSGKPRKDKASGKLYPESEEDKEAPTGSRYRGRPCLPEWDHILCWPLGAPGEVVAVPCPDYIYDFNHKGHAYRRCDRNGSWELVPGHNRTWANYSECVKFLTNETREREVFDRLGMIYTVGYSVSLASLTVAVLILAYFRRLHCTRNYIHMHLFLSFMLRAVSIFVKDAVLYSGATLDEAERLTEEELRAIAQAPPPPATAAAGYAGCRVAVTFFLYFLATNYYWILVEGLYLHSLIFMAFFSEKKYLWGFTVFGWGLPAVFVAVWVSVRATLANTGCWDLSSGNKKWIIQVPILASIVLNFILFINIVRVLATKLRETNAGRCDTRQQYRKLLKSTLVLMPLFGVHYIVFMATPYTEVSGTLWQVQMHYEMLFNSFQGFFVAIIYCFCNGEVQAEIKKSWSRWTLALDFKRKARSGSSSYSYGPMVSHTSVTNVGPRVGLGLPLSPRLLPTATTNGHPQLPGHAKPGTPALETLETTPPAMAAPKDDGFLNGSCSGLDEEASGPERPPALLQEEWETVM
Assay: cAMP stimulation in HKRK-B28 cells
Format: cell-based
Details: basal 4.0 ± 0.1 pmole/well not subtracted
Experimental: Cell Culture. The cell line HKRK-B28 (Takasu, H., et al., J. Bone Miner. Res. 14:11-20 (1999)) was derived from the porcine kidney cell line, LLC-PK1 by stable transfection with plasmid DNA encoding the human P1R and expresses ˜280,000 receptors per cell. These cells, as well as COS-7 cells and SaOS-2-B10 cells, were cultured at […] in T-75 flasks ([…]) in Dulbecco's modified Eagle's medium (DMEM) supplemented with fetal bovine serum (10%), penicillin G (20 units/ml), streptomycin sulfate (20 μg/ml) and amphotericin B (0.05 μg/ml) in a humidified atmosphere containing 5% CO2. Stock solutions of EGTA/trypsin and antibiotics were from GIBCO; fetal bovine serum was from Hyclone Laboratories (Logan, Utah). COS-7 cells sub-cultured in 24-well plates were transfected with plasmid DNA (200 ng per well) encoding the wild-type human P1R or truncated human P1R deleted for residues (24-181) (Shimizu, M., et al., J. Biol. Chem. 275:21836-21843 (2000)) that was purified by cesium chloride/ethidium bromide density gradient centrifugation, and FuGENE 6 transfection reagent (Roche Indianapolis Ind.) according to the manufacturer's recommended procedure. All cells, in 24-well plates, were treated with fresh media and shifted to 33° C. for 12 to 24 h prior to assay.
cAMP Stimulation. Stimulation of cells with peptide analogs was performed in 24-well plates. Cells were rinsed with 0.5 mL of binding buffer (50 mM Tris-HCI, […], 5 mM KCl, 2 mM CaCl2, 5% heat-inactivated horse serum, 0.5% fetal bovine serum, adjusted to pH 7.5 with HCl) and treated with 200 μL of cAMP assay buffer (Delbecco's modified Eagle's medium containing 2 mM 3-isobutyl-1-methylxanthine, 1 mg/mL bovine serum albumin, 35 mM Hepes-NaOH, pH 7.4) and 100 μL of binding buffer containing varying amounts of peptide analog (final volume=300 μL). The medium was removed after incubation for 30 to 60 minutes at room temperature, and the cells were frozen on dry ice, lysed with 0.5 mL 50 mM HCl, and refrozen ([…]). The cAMP content of the diluted lysate was determined by radioimmunoassay. The EC50 response values were calculated using nonlinear regression (see below).
Data Calculation. Calculations were performed using Microsoft® Excel. Nonlinear regression analyses of binding and cAMP dose-response data were performed using the four-parameter equation: yp=Min+[(Max−Min)/(1+(IC50/x)^slope)]. The Excel Solver function was utilized for parameter optimization, as described previously (Carter, P. H., et al., Endocrinology 140: 4972-4981 (1999); Bowen, W. P., and Jerman, J. C., Trends in Pharmacol. Sci. 16: 413-417 (1995)). Differences between paired data sets were statistically evaluated using a one-tailed Student's t-test, assuming unequal variances for the two sets.

| SMILES | cAMP EMax(obs.) [pmole/well] |
| --- | --- |
| CC[C@H](C)[C@H](NC(=O)[C@H](CCC(=O)O)NC(=O)[C@H](C)NC(=O)C(C)(C)NC(=O)[C@H](C)N)C(=O)N[C@@H](CCC(N)=O)C(=O)N[C@@H](CC(C)C)C(=O)N[C@@H](CCSC)C(=O)N[C@@H](Cc1c[nH]cn1)C(=O)N[C@@H](CCC(N)=O)C(=O)N[C@@H](CCCCNC(=N)N)C(=O)N[C@@H](C)C(=O)N[C@@H](CCCCN)C(=O)N[C@@H](Cc1c[nH]c2ccccc12)C(N)=O [Aib-2] (H-A[Aib]AEIQLMHQ[hArg]AKW-NH2) | 168 ± 6 |
| CC[C@H](C)[C@H](NC(=O)C(C)(C)NC(=O)[C@H](C)NC(=O)[C@@H](NC(=O)[C@H](C)N)C(C)C)C(=O)N[C@@H](CCC(N)=O)C(=O)N[C@@H](CC(C)C)C(=O)N[C@@H](CCSC)C(=O)N[C@@H](Cc1c[nH]cn1)C(=O)N[C@@H](CCC(N)=O)C(=O)N[C@@H](CCCCNC(=N)N)C(=O)N[C@@H](C)C(=O)N[C@@H](CCCCN)C(=O)N[C@@H](Cc1c[nH]c2ccccc12)C(N)=O [Aib-4] (H-AVA[Aib]IQLMHQ[hArg]AKW-NH2) | 221 ± 10 |
| CC[C@H](C)[C@H](NC(=O)[C@H](CCC(=O)O)NC(=O)[C@H](C)NC(=O)[C@@H](NC(=O)[C@H](C)N)C(C)C)C(=O)NC(C)(C)C(=O)N[C@@H](CC(C)C)C(=O)N[C@@H](CCSC)C(=O)N[C@@H](Cc1c[nH]cn1)C(=O)N[C@@H](CCC(N)=O)C(=O)N[C@@H](CCCCNC(=N)N)C(=O)N[C@@H](C)C(=O)N[C@@H](CCCCN)C(=O)N[C@@H](Cc1c[nH]c2ccccc12)C(N)=O [Aib-6] (H-AVAEI[Aib]LMHQ[hArg]AKW-NH2) | 116 ± 12 |
| CC[C@H](C)[C@H](NC(=O)[C@H](CCC(=O)O)NC(=O)[C@H](C)NC(=O)[C@@H](NC(=O)[C@H](C)N)C(C)C)C(=O)N[C@@H](CCC(N)=O)C(=O)NC(C)(C)C(=O)N[C@@H](CCSC)C(=O)N[C@@H](Cc1c[nH]cn1)C(=O)N[C@@H](CCC(N)=O)C(=O)N[C@@H](CCCCNC(=N)N)C(=O)N[C@@H](C)C(=O)N[C@@H](CCCCN)C(=O)N[C@@H](Cc1c[nH]c2ccccc12)C(N)=O [Aib-7] (H-AVAEIQ[Aib]MHQ[hArg]AKW-NH2) | 275 ± 8 |
| CC[C@H](C)[C@H](NC(=O)[C@H](CCC(=O)O)NC(=O)[C@H](C)NC(=O)[C@@H](NC(=O)[C@H](C)N)C(C)C)C(=O)N[C@@H](CCC(N)=O)C(=O)N[C@@H](CC(C)C)C(=O)N[C@@H](CCSC)C(=O)N[C@@H](Cc1c[nH]cn1)C(=O)NC(C)(C)C(=O)N[C@@H](CCCCNC(=N)N)C(=O)N[C@@H](C)C(=O)N[C@@H](CCCCN)C(=O)N[C@@H](Cc1c[nH]c2ccccc12)C(N)=O [Aib-10] (H-AVAEIQLMH[Aib][hArg]AKW-NH2) | 214 ± 22 |
| CC[C@H](C)[C@H](NC(=O)[C@H](CCC(=O)O)NC(=O)[C@H](C)NC(=O)[C@@H](NC(=O)[C@H](C)N)C(C)C)C(=O)N[C@@H](CCC(N)=O)C(=O)N[C@@H](CC(C)C)C(=O)N[C@@H](CCSC)C(=O)N[C@@H](Cc1c[nH]cn1)C(=O)N[C@@H](CCC(N)=O)C(=O)N[C@@H](CCCCNC(=N)N)C(=O)NC(C)(C)C(=O)N[C@@H](CCCCN)C(=O)N[C@@H](Cc1c[nH]c2ccccc12)C(N)=O [Aib-12] (H-AVAEIQLMHQ[hArg][Aib]KW-NH2) | 263 ± 9 |
| CC[C@H](C)[C@H](NC(=O)[C@H](CCC(=O)O)NC(=O)[C@H](C)NC(=O)[C@@H](NC(=O)[C@H](C)N)C(C)C)C(=O)N[C@@H](CCC(N)=O)C(=O)N[C@@H](CC(C)C)C(=O)N[C@@H](CCSC)C(=O)N[C@@H](Cc1c[nH]cn1)C(=O)N[C@@H](CCC(N)=O)C(=O)N[C@@H](CCCCNC(=N)N)C(=O)N[C@@H](C)C(=O)NC(C)(C)C(=O)N[C@@H](Cc1c[nH]c2ccccc12)C(N)=O [Aib-13] (H-AVAEIQLMHQ[hArg]A[Aib]W-NH2) | 259 ± 10 |
